Reference: patent EP4512806A1, “MOLECULAR GLUE DEGRADERS AND USES THEREOF” (Mablink Bioscience, priority 2023, dated 2025)

Experiments:
[1] = In vivo mice tolerability assessment; details: female CD-1 mice, single intravenous 1mg/kg dose, Mean
Experimental: All animal procedures were performed in accordance with the European Union directive 86/609/EEC. Experiments were performed under individual permit and in accredited animal care facilities.
Mouse tolerability experiments were performed with selected compounds of the disclosure. Female CD-1 mice (n=5 mice per group) were treated with a single intravenous 1mg/kg dose of compound. Vehicle was PBS pH 6.0. Mice were carefully monitored for mortality, external clinical findings, weight loss, behavior and apparent signs of toxicity over the course of 21 days.

CycK = target: T1, CycK (Homo sapiens, UniProt O75909); assay: CycK protein quantification by Western Blot in JIMT-1 cells; format: cell-based
T1 construct: endogenous in cells; host or cells: JIMT-1
Experimental: 1×10^6 JIMT-1 cells were plated in 3mL of DMEM/FBS 90:10 (v/v) in 6-well plates and incubated overnight. Cells were treated with the compound 2384 of the invention with or without the proteasome inhibitor MG-132 (MedChemExpress, Cat HY-13259) for 2h. Cells were harvested, and protein were extracted using complete RIPA buffer (RIPA buffer, 1 mM DTT, 1M NaF, 100 mM sodium orthovanadate, phosphatase inhibitor buffer and protease inhibitors) for 1 hour on ice. Lysate were centrifuged 15min at 12 000g at 4°C. and proteins were mixed with 4x Laemmli Sample Buffer (Bio-Rad), heated at 95 °C for 5 mins and separated by SDS PAGE (PROTEAN TGX Stain-Free Gels, Bio-Rad). Proteins were then transferred onto PVDF membrane (iBlot®2 PVDF stacks, Invitrogen) using the iBlot2 device (Invitrogen) and blocked with TBS buffer (Intercept® Blocking Buffer, LI-COR Biosciences). Primary antibodies were incubated overnight at 4°C and secondary antibodies (IRDye Infrared Dyes from LI-COR Biosciences) 1 hour at room temperature. Used primary antibody were: anti-CycK (cat#A301-939A, Bethyl Laboratories, dil. 1:1000) and anti-β-actin (cat#A5441, Sigma-Aldrich, dil. 1:5000). Membranes were scanned using a c500 Imaging System (Azure Biosystems) and densitometric quantification were performed using imaged software. Protein levels were normalized against β-actin.

Cyclin K = assay: CycK mRNA RT-qPCR in JIMT-1 cells; format: cell-based, human; details: 1µM final concentration, 2h
Experimental: 1×10^6 JIMT-1 cells were plated in 3mL of DMEM/FBS 90:10 (v/v) in 6-well plates and incubated overnight. Cells were treated with the compound 2384 of the invention, with CR8 (a known molecular glue degrader that depletes CycK) or with the proteasome inhibitor MG-132 (MedChemExpress, Cat HY-13259) for 2h. RNA was extracted using the QIAamp RNeasy Mini Kit (cat#74106, Qiagen) according to the manufacturer's protocol. Reverse transcription was performed using SuperScripr™ IV reverse transcriptase (cat#LT02241, Invitrogen). Quantitative PCR was performed using a No ROX Sybr Master Mix in the LightCycler 480 Real-Time PCR system (Roche Life Science).
Cyclin K forward ([…]) and reverse ([…]) primers were purchased from Eurogentec. Gene expression was normalized using ribosomal 28S as the housekeeping gene.

340 protein kinases = assay: Kinase screening assay (radiometric 33PanQinase ActivityAssay); format: biochemical, human; details: final compound concentration of 10 µM; most inhibited kinases belong to CMGC family, particularly CDK; 23 out of the 30 most inhibited were CDK/Cyclin complexes
Experimental: Compound 2384 according to the disclosure was subjected to kinase screening assays (performed at Reaction Biology, Germany). The screening assay was performed at a final compound concentration of 10 µM. A radiometric protein kinase assay (33PanQinase® ActivityAssay) was used for measuring the kinase activity of 340 protein kinases. All kinase assays were performed in 96-well FlashPlates™ from Perkin Elmer (Boston, MA, USA) in a 50 µL reaction volume. […] All PKC assays (except the PKC-mu and the PKC-nu assay) additionally contained 1 mM CaCl2, 4 mM EDTA, 5 µg/ml Phosphatidylserine and 1 µg/ml 1,2-Dioleyl-glycerol. The CAMK1D, CAMK2A, CAMK2B, CAMK2D, CAMK2G, CAMK4, CAMKK1, CAMKK2, DAPK2, EEF2K, MYLK, MYLK2 and MYLK3 assays additionally contained 1 µg/ml Calmodulin and 0.5 mM CaCl2. The PRKG1 and PRKG2 assays additionally contained 1 µM cGMP. The DNA-PK assay additionally contained 2.5 µg/ml DNA. The protein kinase reaction cocktails were incubated at 30°C for 60 minutes. The reaction was stopped with 50 µl of 2 % (v/v) H3PO4, plates were aspirated and washed two times with 200 µL 0.9 % (w/v) NaCl. Incorporation of 33Pi (counting of "cpm") was determined with a microplate scintillation counter (Microbeta, Wallac). All protein kinase assays were performed with a BeckmanCoulter Biomek 2000/SL robotic system. […]

T1 sequence (O75909 whole entry): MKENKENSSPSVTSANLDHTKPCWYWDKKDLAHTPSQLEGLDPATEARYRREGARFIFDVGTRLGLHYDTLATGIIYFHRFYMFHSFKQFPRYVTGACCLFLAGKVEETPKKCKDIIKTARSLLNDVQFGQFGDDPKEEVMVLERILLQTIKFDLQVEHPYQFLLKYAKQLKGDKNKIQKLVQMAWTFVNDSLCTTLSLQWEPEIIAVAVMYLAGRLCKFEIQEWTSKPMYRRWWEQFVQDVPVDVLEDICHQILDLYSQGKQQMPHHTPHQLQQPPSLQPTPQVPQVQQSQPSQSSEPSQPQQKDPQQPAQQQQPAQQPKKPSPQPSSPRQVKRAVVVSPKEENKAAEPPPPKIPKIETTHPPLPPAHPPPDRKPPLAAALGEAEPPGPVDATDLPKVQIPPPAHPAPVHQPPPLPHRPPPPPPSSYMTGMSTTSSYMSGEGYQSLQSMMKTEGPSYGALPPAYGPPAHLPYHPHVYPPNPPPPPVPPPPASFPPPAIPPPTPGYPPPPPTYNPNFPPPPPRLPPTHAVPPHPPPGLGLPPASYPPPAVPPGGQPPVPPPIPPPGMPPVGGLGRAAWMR
T1 sequence (Q9NYV4 whole entry partner): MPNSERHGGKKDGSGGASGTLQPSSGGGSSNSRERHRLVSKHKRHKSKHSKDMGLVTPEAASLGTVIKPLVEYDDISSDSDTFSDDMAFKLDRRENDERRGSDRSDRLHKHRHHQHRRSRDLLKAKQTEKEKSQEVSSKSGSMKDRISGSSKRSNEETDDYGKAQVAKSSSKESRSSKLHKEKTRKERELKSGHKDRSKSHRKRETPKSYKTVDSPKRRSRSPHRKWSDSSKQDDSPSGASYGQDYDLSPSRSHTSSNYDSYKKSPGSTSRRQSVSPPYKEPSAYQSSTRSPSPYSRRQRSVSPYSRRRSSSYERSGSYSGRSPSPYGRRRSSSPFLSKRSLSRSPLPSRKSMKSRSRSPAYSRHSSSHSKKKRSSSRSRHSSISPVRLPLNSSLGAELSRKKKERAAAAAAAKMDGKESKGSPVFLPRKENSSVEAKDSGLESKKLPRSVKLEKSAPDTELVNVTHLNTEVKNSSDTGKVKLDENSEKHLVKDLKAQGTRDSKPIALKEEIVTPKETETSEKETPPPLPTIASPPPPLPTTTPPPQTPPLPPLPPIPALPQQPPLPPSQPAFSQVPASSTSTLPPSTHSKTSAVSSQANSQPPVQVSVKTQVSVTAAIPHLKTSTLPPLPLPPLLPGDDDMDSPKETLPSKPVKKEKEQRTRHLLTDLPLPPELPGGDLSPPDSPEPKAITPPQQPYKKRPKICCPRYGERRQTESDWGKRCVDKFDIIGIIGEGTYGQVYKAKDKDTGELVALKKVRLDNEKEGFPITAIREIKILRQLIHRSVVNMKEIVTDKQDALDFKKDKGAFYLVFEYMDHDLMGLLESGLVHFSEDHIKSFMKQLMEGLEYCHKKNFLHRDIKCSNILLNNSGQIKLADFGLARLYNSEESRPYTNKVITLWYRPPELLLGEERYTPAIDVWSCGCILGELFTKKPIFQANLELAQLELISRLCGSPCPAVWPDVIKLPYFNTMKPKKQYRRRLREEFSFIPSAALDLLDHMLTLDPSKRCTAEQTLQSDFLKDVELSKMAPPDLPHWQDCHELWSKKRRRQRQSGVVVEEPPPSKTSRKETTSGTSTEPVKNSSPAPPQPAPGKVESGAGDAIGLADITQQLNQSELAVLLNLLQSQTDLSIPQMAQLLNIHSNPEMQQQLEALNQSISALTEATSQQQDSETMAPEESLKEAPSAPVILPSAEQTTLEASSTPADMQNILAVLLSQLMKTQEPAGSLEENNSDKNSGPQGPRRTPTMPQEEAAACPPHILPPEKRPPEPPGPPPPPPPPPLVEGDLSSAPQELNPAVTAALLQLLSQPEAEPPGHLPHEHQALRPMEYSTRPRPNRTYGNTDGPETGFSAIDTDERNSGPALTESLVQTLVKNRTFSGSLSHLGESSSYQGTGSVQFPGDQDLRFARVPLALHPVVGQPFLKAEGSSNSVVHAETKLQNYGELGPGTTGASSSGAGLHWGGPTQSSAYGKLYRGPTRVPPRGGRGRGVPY
T1 sequence (Q16531 whole entry partner): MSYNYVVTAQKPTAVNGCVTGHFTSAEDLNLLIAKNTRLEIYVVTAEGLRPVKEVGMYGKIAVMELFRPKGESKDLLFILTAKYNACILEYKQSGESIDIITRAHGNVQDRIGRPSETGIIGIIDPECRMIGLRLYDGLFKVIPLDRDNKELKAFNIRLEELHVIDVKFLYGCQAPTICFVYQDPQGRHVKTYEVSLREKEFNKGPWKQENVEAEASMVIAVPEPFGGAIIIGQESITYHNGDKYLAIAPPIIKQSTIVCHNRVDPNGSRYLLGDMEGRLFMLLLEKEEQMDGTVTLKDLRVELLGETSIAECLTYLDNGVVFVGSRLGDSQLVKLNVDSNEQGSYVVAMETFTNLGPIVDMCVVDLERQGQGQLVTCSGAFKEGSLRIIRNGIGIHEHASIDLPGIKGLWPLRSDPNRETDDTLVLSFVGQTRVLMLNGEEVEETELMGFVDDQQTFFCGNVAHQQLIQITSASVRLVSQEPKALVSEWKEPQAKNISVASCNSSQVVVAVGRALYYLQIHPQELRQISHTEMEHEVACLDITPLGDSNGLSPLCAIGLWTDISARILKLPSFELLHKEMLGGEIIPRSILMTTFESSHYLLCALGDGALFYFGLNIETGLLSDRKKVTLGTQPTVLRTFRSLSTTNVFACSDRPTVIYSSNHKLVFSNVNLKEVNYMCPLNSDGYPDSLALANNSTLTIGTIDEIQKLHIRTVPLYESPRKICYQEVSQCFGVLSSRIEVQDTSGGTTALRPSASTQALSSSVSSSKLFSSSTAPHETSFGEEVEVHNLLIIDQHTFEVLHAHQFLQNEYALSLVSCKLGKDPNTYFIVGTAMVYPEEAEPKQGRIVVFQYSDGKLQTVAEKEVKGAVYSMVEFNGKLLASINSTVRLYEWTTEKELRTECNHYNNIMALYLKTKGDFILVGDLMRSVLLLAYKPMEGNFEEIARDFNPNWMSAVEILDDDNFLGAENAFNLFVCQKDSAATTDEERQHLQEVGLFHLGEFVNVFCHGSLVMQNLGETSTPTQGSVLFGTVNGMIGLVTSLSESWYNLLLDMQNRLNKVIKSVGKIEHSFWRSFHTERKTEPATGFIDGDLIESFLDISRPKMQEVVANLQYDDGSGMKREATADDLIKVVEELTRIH

Compound: N[C@H]1CC[C@H](Nc2nc(NCc3ccc(-c4ccccn4)cc3)n3ncc(Br)c3n2)CC1 [Compound 2384]
- average weight change (% initial weight) ([1]; Study Day 1): 0.0 % initial weight
- average weight change (% initial weight) ([1]; Study Day 2): -2.5 % initial weight
- average weight change (% initial weight) ([1]; Study Day 3): -7.1 % initial weight
- average weight change (% initial weight) ([1]; Study Day 4): -14.6 % initial weight
- average weight change (% initial weight) ([1]; Study Day 5): -15.2 % initial weight
- average weight change (% initial weight) ([1]; Study Day 6): -14.9 % initial weight
- average weight change (% initial weight) ([1]; Study Day 7): -12.4 % initial weight
- average weight change (% initial weight) ([1]; Study Day 8): -9.2 % initial weight
- average weight change (% initial weight) ([1]; Study Day 9): -7.3 % initial weight
- average weight change (% initial weight) ([1]; Study Day 10): -1.9 % initial weight
- average weight change (% initial weight) ([1]; Study Day 11): -0.7 % initial weight
- average weight change (% initial weight) ([1]; Study Day 12): 4.1 % initial weight
- average weight change (% initial weight) ([1]; Study Day 13): 1.9 % initial weight
- average weight change (% initial weight) ([1]; Study Day 14): -1.8 % initial weight
- average weight change (% initial weight) ([1]; Study Day 15): -3.4 % initial weight
- average weight change (% initial weight) ([1]; Study Day 16): -4.1 % initial weight
- average weight change (% initial weight) ([1]; Study Day 17): -1.6 % initial weight
- average weight change (% initial weight) ([1]; Study Day 18): -0.5 % initial weight
- average weight change (% initial weight) ([1]; Study Day 19): 0.7 % initial weight
- average weight change (% initial weight) ([1]; Study Day 20): 2.6 % initial weight
- average weight change (% initial weight) ([1]; Study Day 21): 2.0 % initial weight
- CycK protein content (CycK; 1µM final concentration, 2h): decreased CycK protein content
- minimum effective dose for CycK degradation, times lower than that of CR8 (CycK; 2h treatment): approximately 10 times
- concentration inducing complete CycK degradation (CycK; 2h treatment, decreasing doses): 10 nM
- CycK mRNA level (Cyclin K): not at the CycK mRNA level
- inhibition of most inhibited kinases (340 protein kinases): more than 90%
